The subject of experiment [1] is primary human ciliary muscle cells (h-CM). Briefly: Total prostaglandin (PG) release from primary h-CM cells (EIA). It counts as cell-based. The conditions noted are these: 1 hour at 37° C., class symbols (in μM). The procedure: BK agonist compounds of Formula 1 were evaluated for the ability to induce prostaglandin (PG) release from primary human ciliary muscle cells (h-CM). Briefly, h-CM cells were grown to confluence in FNC-coated 24-well culture plates and serum-starved (0.8% FBS) for 24 hours prior to the experiment. Cells were stimulated with a 9-pt concentration-response (0.1 nM-10 μM) of bradykinin or BK agonist for 1 hour at 37° C. with subsequent sample recovery and processing for total PG measurement. Total PG measurement was determined using a total Prostaglandin Screening EIA kit (cat#514012) purchased from Cayman Chemical (Ann Arbor, Mich.). The assay was conducted according to the package insert from the manufacturer.

In experiment [2] the target is T1, BK receptors in human ciliary muscle cells (h-CM) (Homo sapiens, UniProt P30411).
T1 construct: h-CM cells expressing BK receptors were seeded; endogenous in cells; host or cells: human ciliary muscle (h-CM) cells
T1 sequence (P30411 1-391): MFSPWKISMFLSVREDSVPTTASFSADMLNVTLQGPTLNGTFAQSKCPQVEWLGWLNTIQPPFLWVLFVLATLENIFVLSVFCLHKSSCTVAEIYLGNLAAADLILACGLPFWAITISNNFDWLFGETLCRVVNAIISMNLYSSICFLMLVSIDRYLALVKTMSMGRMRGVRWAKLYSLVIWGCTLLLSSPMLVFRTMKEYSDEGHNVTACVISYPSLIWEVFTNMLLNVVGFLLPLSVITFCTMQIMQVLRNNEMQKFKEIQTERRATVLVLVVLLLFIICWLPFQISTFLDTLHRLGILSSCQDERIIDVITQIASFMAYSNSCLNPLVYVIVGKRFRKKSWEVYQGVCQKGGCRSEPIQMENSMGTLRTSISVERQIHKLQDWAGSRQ
Briefly: Functional assay measuring [Ca2+]i mobilization (FLIPR) in h-CM cells. Type of experiment: cell-based. The conditions noted are these: class symbols (in μM), read-out: CaM (EC50). The procedure:
On the day of the experiment, media was removed, cells were rinsed and 50 μL of serum-free media added. One vial of FLIPR Calcium Assay Kit dye was reconstituted in 50 mL of a FLIPR buffer consisting of Hank's Balanced Salt Solution (HBSS), 20 mM HEPES, and 2.5 mM probenecid, pH 7.4. Cells were loaded with the calcium-sensitive dye by addition of an equal volume (50 μL) to each well of the 96-well plate and incubated with dye for 1 h at 23° C. […] After this time, the test compound plate and cell plate were placed in a Fluorescence Imaging Plate Reader (FLIPR-Tetra®) instrument (Molecular Devices/MDSPharma, Sunnyvale, Calif.). At the beginning of an experimental run, a signal test was performed to check the basal fluorescence signal from the dye-loaded cells and the uniformity of the signal across the plate. […] An aliquot (25 μL) of the test compound was added to the existing 100 μL dye-loaded cells at a dispensing speed of 50 μL/sec. Intracellular calcium mobilization was measured by monitoring real-time changes in cellular fluorescence upon test compound addition. Fluorescence data were collected in real-time at 1.0 sec intervals for the first 60 seconds and at 6.0 second intervals for an additional 120 seconds. Baseline fluorescence readings were normalized across the plate and background-corrected from negative control wells. […] EC50 values were determined by 4-parameter nonlinear curve fitting of the concentration-response curve. Calibration of the instrument was performed using manufacturer's standard procedures.

For experiment [3], the target named is T2, recombinant human bradykinin B2 receptor (Homo sapiens, UniProt P30411).
T2 construct: expressed in transfected cells; host or cells: Chinese hamster ovary (CHO) cells, membrane homogenates
T2 sequence (P30411 1-391): T1 sequence (P30411 1-391)
Briefly: [3H]-BK competition radioligand binding to human cloned B2 receptor (CHO cell membranes). The procedure: Chinese hamster ovary (CHO) cell membrane homogenates (2.5 μg protein) expressing the recombinant human bradykinin B2 receptor were incubated for 60 min at 23° C. with 0.2 nM [^3H]-bradykinin (95.5 Ci/mmole, PerkinElmer) in the absence or presence of the test compound in a buffer containing 50 mM Tris/HCl (pH 7.4), 0.2 g/L 1-10-phenanthroline and 0.1% BSA. All reagent and test compound additions to the assay plates were made using Biomek 3000 robotic workstations (Beckman Instruments, Fullerton, Calif.). Nonspecific binding was determined in the presence of 1 μM unlabeled bradykinin. Following the incubation, the assay was terminated by rapid filtration under vacuum through glass fiber filters (GF/C, PerkinElmer) presoaked with 0.3% polyethyleneimine and rinsed several times with an ice-cold 50 mM Tris-HCl buffer using a 96-sample cell harvester (Tomtec). The filters were air-dried and the radioactivity counted in a beta-scintillation counter (Topcount, PerkinElmer) using a scintillation cocktail (Microscint 20, PerkinElmer) (Sharif and Whiting, Neurochem. Int. 18: 89-96, 1991). Competitive binding inhibition curves were generated using a 7-point concentration—response of test compound in duplicate. Bradykinin peptide was also tested as an internal control in the assay. The data were analyzed using nonlinear, iterative curve-fitting to obtain the potency and intrinsic activities of the test agents as previously described (Sharif et al. J. Pharmacol. Exp. Ther. 286: 1094-1102, 1998; Sharif et al. Invest Ophthalmol. Vis. Sci. 39:2562-2571, 1998; Kelly et al. J. Pharmacol. Exp. Ther. 304: 238-245, 2003). Determined IC50 values were converted to Ki values using the standard Cheng-Prusoff equation.

Where [4] appears, read: 0.2 nM [3H]-bradykinin, CHO membranes, 60 min 23° C., mean ± SEM or single value, Ki from IC50 by Cheng-Prusoff, read-out: [3H]-BK Binding to Human Cloned B2 Receptor (Ki).

Where two headings read alike, the source gives them in different places. Bounds are passed on as bounds.

For the compound `CNC(=O)C1CCN(CC(=O)NCC(=O)N(C)c2ccc(Cl)c(COc3cccc4c3nc(OC)n4Cc3ccccn3)c2Cl)CC1` [Compound 13, 1-(2-((2-((2,4-dichloro-3-(((2-methoxy-1-(pyridin-2-ylmethyl)-1H-benzo[d]imidazol-4-yl)oxy)methyl)phenyl)(methyl)amino)-2-oxoethyl)amino)-2-oxoethyl)-N-methylpiperidine-4-carboxamide], the EC50 in experiment [1] (Homo sapiens, 1 h) is greater than 1 µM; in experiment [2], 0.1 to 1 µM.
With `COc1nc2c(OCc3c(Cl)ccc(N(C)C(=O)CNC(=O)CCCN4CCNC(=O)C4)c3Cl)cccc2n1Cc1ccccn1` [Compound 72], the EC50 in experiment [1] (Homo sapiens, 1 h) was greater than 1 µM; in experiment [2], less than 0.1 µM.
Regarding `COc1nc2c(OCc3c(Cl)ccc(N(C)C(=O)CNC(=O)CN4CCC(NC(C)=O)C4)c3Cl)cccc2n1Cc1ccccn1` (stereo not shown) [Compound 66], the concentration giving a half-maximal response (EC50) in experiment [1] (Homo sapiens, 1 h) was 0.1 to 1 µM; in experiment [2] it was less than 0.1 µM.
Consider `CNC(=O)c1ccc(CCC(=O)NCC(=O)N(C)c2ccc(Cl)c(COc3cccc4c(OCc5cn(C)cn5)cc(C)nc34)c2Cl)cn1` [Compound 48, 5-(3-((2-((2,4-dichloro-3-(((2-methyl-4-((1-methyl-1H-imidazol-4-yl)methoxy)quinolin-8-yl)oxy)methyl)phenyl)(methyl)amino)-2-oxoethyl)amino)-3-oxopropyl)-N-methylpicolinamide], for which the EC50 in experiment [1] (Homo sapiens, 1 h) is 0.1 to 1 µM; in experiment [2], less than 0.1 µM.
As to “4-(3-((2-((2,4-dichloro-3-(((2-methyl-4-(pyridin-2-ylmethoxy)quinolin-8-yl)oxy)methyl)phenyl)(methyl)amino)-2-oxoethyl)amino)-3-oxopropyl)-N-methylbenzamide [Compound 31]”, the EC50 is 0.1 to 1 µM in experiment [1] and less than 0.1 µM in experiment [2].
On to `COc1nc2c(OCc3c(Cl)ccc(N(C)C(=O)CNC(=O)CCc4ccc(N)nc4)c3Cl)cccc2n1Cc1ccccn1` [Compound 67], for which the EC50 in experiment [1] (Homo sapiens, 1 h) was greater than 1 µM; in experiment [2], less than 0.1 µM.
Take `COc1nc2c(OCc3c(C)ccc(N(C)C(=O)CNC(=O)CN4CCC(NC(C)=O)CC4)c3C)cccc2n1Cc1ccccn1` [Compound 51]: in experiment [2], the EC50 was in the range of 0.1 to 1 µM. The Ki in experiment [3] (setting [4]) was determined as 0.701 µM.
As for `CNC(=O)c1ccc(CCC(=O)NCC(=O)N(C)c2ccc(Cl)c(COc3cccc4c3nc(OC)n4Cc3ccccn3)c2Cl)nc1` [Compound 43, 6-(3-((2-((2,4-dichloro-3-(((2-methoxy-1-(pyridin-2-ylmethyl)-1H-benzo[d]imidazol-4-yl)oxy)methyl)phenyl)(methyl)amino)-2-oxoethyl)amino)-3-oxopropyl)-N-methylnicotinamide], the EC50 in experiment [1] (Homo sapiens, 1 h) is less than 0.1 µM; in experiment [2], less than 0.1 µM.
In the case of `CNC(=O)CN1CCN(CC(=O)NCC(=O)N(C)c2ccc(Cl)c(COc3cccc4c3nc(OC)n4Cc3ccccn3)c2Cl)CC1` [Compound 53], the EC50 in experiment [2] fell in the range of 0.1 to 1 µM. Moreover, the Ki in experiment [3] (setting [4]) was found to be 0.34 µM.
Consider “4-((2-((2-((3-(((2-methoxy-1-(pyridin-2-ylmethyl)-1H-benzo[d]imidazol-4-yl)oxy)methyl)-2,4-dimethylphenyl)(methyl)amino)-2-oxoethyl)amino)-2-oxoethyl)amino)-N-methylpiperidine-1-carboxamide [Compound 21]”, for which, in experiment [2], the half-maximal effective concentration (EC50) was in the range of 0.1 to 1 µM. For the same compound, the Ki in experiment [3] (setting [4]) is 0.881 ± 0.263 µM; in experiment [3] (same assay as E1, given as class symbols (in μM), read-out: [3H]-BK Binding to Human Cloned B2 Receptor (Ki, nM), class symbols), 0.1 to 1 µM.
Regarding `COc1nc2c(OCc3c(Cl)ccc(N(C)C(=O)CNC(=O)CCc4ccc(C(=O)NCCO)nc4)c3Cl)cccc2n1Cc1cn(C)cn1` [Compound 85], the EC50 was less than 0.1 µM in experiment [1] (Homo sapiens, 1 h) and less than 0.1 µM in experiment [2].
`CNC(=O)c1ccc(CCC(=O)NCC(=O)N(C)c2ccc(Cl)c(COc3cccc4c(OCc5ccccc5F)cc(C)nc34)c2Cl)cn1` [Compound 47, 5-(3-((2-((2,4-dichloro-3-(((4-((2-fluorobenzyl)oxy)-2-methylquinolin-8-yl)oxy)methyl)phenyl)(methyl)amino)-2-oxoethyl)amino)-3-oxopropyl)-N-methylpicolinamide]: the EC50 is less than 0.1 µM in experiment [1] (Homo sapiens, 1 h) and 0.1 to 1 µM in experiment [2].
Take “5-(3-((2-((2,4-dichloro-3-(((2-methyl-4-((pyridin-2-ylmethyl)amino)quinolin-8-yl)oxy)methyl)phenyl)(methyl)amino)-2-oxoethyl)amino)-3-oxopropyl)-N-methylpicolinamide [Compound 49]”: the EC50 in experiment [1] and in experiment [2] was 0.1 to 1 µM in each case.
Regarding `CCOC(=O)COc1cc(C)nc2c(OCc3c(Cl)ccc(N(C)C(=O)CNC(=O)CCc4ccc(C(=O)NC)nc4)c3Cl)cccc12` [Compound 46, ethyl 2-((8-((2,6-dichloro-3-(N-methyl-2-(3-(6-(methylcarbamoyl)pyridin-3-yl)propanamido)acetamido)benzyl)oxy)-2-methylquinolin-4-yl)oxy)acetate], the EC50 in experiment [1] (Homo sapiens, 1 h) is less than 0.1 µM; in experiment [2] it was 0.1 to 1 µM.
As to `COc1nc2c(OCc3c(Cl)ccc(N(C)C(=O)CNC(=O)CCc4ccc(NS(C)(=O)=O)nc4)c3Cl)cccc2n1Cc1ccccn1` [Compound 5, N-(2-((2,4-dichloro-3-(((2-methoxy-1-(pyridin-2-ylmethyl)-1H-benzo[d]imidazol-4-yl)oxy)methyl)phenyl)(methyl)amino)-2-oxoethyl)-3-(6-(methylsulfonamido)pyridin-3-yl)propanamide], the EC50 in experiment [2] was in the range of 0.1 to 1 µM. In experiment [3] (setting [4]), the inhibition constant (Ki) turned out to be 0.071 ± 0.03 µM.
`COc1nc2c(OCc3c(Cl)ccc(N(C)C(=O)CNC(=O)CN4CCC(NC(C)=O)CC4)c3Cl)cccc2n1Cc1ccccn1` [Compound 15, 2-(2-(4-acetamidopiperidin-1-yl)acetamido)-N-(2,4-dichloro-3-(((2-methoxy-1-(pyridin-2-ylmethyl)-1H-benzo[d]imidazol-4-yl)oxy)methyl)phenyl)-N-methylacetamide]: the EC50 in experiment [2] is 0.1 to 1 µM. For the same compound, in experiment [3] (setting [4]), the Ki stood at 0.467 µM.
As for `CCc1nc2c(OCc3c(Cl)ccc(N(C)C(=O)CNC(=O)CCN4CCN(C(=O)NC)CC4)c3Cl)cccn2c1C(O)c1ccccn1` (stereo not shown) [Compound 26], in experiment [2], the EC50 lay in the range of 0.1 to 1 µM. Besides, the Ki in experiment [3] (setting [4]) is 2.14 ± 0.223 µM.
Regarding `CCc1nc2c(OCc3c(Cl)ccc(N(C)C(=O)CNC(=O)CNC4CCN(C(=O)NC)CC4)c3Cl)cccn2c1C(O)c1ccccn1` (stereo not shown) [Compound 23], in experiment [2], the EC50 is greater than 1 µM. Further, in experiment [3] (setting [4]), the Ki amounted to 1.73 ± 0.428 µM.

A word on the EC50: it is the concentration giving half of the maximal effect. Usually Ki stands for the dissociation constant of the complex between target and ligand, obtained from inhibition or displacement.
